Source: US11844767B2, “Composition and methods for stimulating clearance of amyloid-beta protein” (Rush University Medical Center, priority 2016, dated 2023)

Columns and labels:
LDLR = assay: Quantitative RT-PCR of LDLR expression in astrocytes; format: cell-based, mouse
Experimental: The mRNA quantification was performed using the ABI-Prism7700 sequence detection system using SYBR Select master mix. The mRNA expression of the targeted genes was normalized to the level of Gapdh mRNA and data was processed by the ABI Sequence Detection System 1.6 software.

TFEB = conditions: alone and in conjunction with all-trans-retinoic acid; cited from earlier work

## Cc1ccc(C)c(OCCCC(C)(C)C(=O)O)c1 [GFB, gemfibrozil]
LDLR; PPARα(−/−) cells
  expression of LDLR: not
LDLR; WT astrocytes
  expression of LDLR: increased
TFEB
  TFEB in brain cells: capable of enhancing TFEB
